Laboratory results published in patent US6831190B1, “Guanidinomethyl cyclohexane carboxylic acid ester derivatives” (Teikoku Chemical Industries Co., Ltd., priority 1994, dated 2004).
In brackets after ≈: the same amount, converted by molar mass. Read-outs that look alike come from different tables or passages of the source.

Legend:
[1] = test system: Staphylococcus aureus ATCC 6538; assay: MIC, standard method of Japanese Chemotherapy Academy; format: cell-based; conditions: Strain 12: Staphylococcus aureus ATCC 6538
Description: (§1) 1. Minimum Inhibitory Concentration (MIC) was measured in accordance with the standard method of Japanese Chemotherapy Academy (Chemotherapy, 29: 76-79, 1981).
(§2) And MIC of the compounds of Example 3, 36, 8, 14, 17, 21, 41 and 45 were measured.

[2] = test system: Staphylococcus aureus 209PJC; assay: as above; format: cell-based; conditions: Strain 11: Staphylococcus aureus 209PJC
Description: as §1, §2

[3] = test system: Staphylococcus aureus No. 2 (MRSA); assay: as above; format: cell-based; conditions: Strain 14: Staphylococcus aureus No. 2 (MRSA)
Description: as §1, §2

[4] = test system: Bacillus subtilis ATCC 6633; assay: as above; format: cell-based; conditions: for MIC: Strain 13: Bacillus subtilis ATCC 6633; for MIC against bacillus subcillus ATCC 6633: standard method of Japanese Chemotherapy Academy
Description: as §1, §2

[5] = test system: Helicobacter pylori No. 19; assay: MIC, agar plating dilution, clinical segregation strain; format: cell-based
In short: (§3)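 Agar plate dilution per Japanese Chemotherapy Society standard method, with compounds from DMSO solutions mixed into Brain Heart Infusion agar containing 0.1% cyclodextrin. Plates were read after 3 days at 37 °C under microaerobic conditions.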

[6] = test system: Helicobacter pylori No. 4; assay: as above; format: cell-based
In short: as §3

[7] = test system: Helicobacter pylori No. 1; assay: as above; format: cell-based
In short: as §3

[8] = test system: Helicobacter pylori No. 2; assay: as above; format: cell-based
In short: as §3

[9] = test system: Helicobacter pylori No. 3; assay: as above; format: cell-based
In short: as §3

[10] = test system: Helicobacter pylori No. 20; assay: as above; format: cell-based
In short: as §3

[11] = test system: Helicobacter pylori No. 28; assay: as above; format: cell-based
In short: as §3

[12] = test system: Helicobacter pylori ATCC 43629; assay: MIC, agar plating dilution (standard method of Japanese Chemotherapy Academy); format: cell-based
In short: (§4)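 Agar dilution MIC followed the Japanese Chemotherapy Academy standard method, on Brain Heart Infusion agar with 0.1% cyclodextrin and compounds dissolved in DMSO. Plates were incubated microaerobically at 37 °C for three days.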

[13] = test system: Helicobacter pylori ATCC 43504; assay: as above; format: cell-based
In short: as §4

[14] = test system: helicobacter pylori; assay: MIC of benexart hydrochloride, for reference; format: cell-based; conditions: strain and medium not given
Description: For reference, the value of MIC of benexart hydrochloride was >100 µg/ml.

[15] = test system: Escherichia coli NIH JC-2; assay: MIC, standard method of Japanese Chemotherapy Academy; format: cell-based; conditions: Objected Strain 3: Escherichia coli NIH JC-2
Description: as §1

[16] = test system: Helicobacter pylori No. 4; assay: MIC and MBC, liquid medium dilution; format: cell-based; conditions: Objected Strain 7: Helicobacter pylori No. 4
Description: (§5) 2. Minimum Inhibitory Concentration (MIC) and Minimum Bacteria sterilizeory Concentration (MBC) against helicobacter pylon were measured in accordance with the liquid medium dilution. […] And […] of helicobacter pylon bacterial solution, which was cultured at 37° C. for three days and then diluted and prepared with the above mentioned liquid medium, was added to the mixtures to adjust the volume to 105 CFU/ml. […] After they were cultured by the same method as above mentioned, minimum concentration of the compounds which were not recognized the growth with the naked eyes were measured as the values of MBC.

[17] = test system: Helicobacter pylori ATCC 43629; assay: MIC and MBC, liquid medium dilution; format: cell-based; conditions: Objected Strain 2: Helicobacter pylori ATCC 43629
Description: as §5

[18] = test system: Helicobacter pylori No. 1; assay: MIC and MBC, liquid medium dilution; format: cell-based; conditions: Objected Strain 4: Helicobacter pylori No. 1
Description: as §5

[19] = test system: Helicobacter pylori No. 2; assay: MIC and MBC, liquid medium dilution; format: cell-based; conditions: Objected Strain 5: Helicobacter pylori No. 2
Description: as §5

[20] = test system: Helicobacter pylori ATCC 43504; assay: MIC and MBC, liquid medium dilution; format: cell-based; conditions: Objected Strain 1: Helicobacter pylori ATCC 43504
Description: as §5

[21] = test system: Helicobacter pylori No. 3; assay: MIC and MBC, liquid medium dilution; format: cell-based; conditions: Objected Strain 6: Helicobacter pylori No. 3
Description: as §5

[22] = test system: ethanol hydrochloride ulceration; conditions: against an ethanol hydrochloride ulceration; cited from earlier work
[23] = Strain 7: Helicobacter pylori No. 4
[24] = Strain 4: Helicobacter pylori No. 1
[25] = Strain 5: Helicobacter pylori No. 2
[26] = Strain 6: Helicobacter pylori No. 3
[27] = Objected Strain 2: Helicobacter pylori ATCC 43629
[28] = Objected Strain 1: Helicobacter pylori ATCC 43504
[29] = Strain 8: Helicobacter pylori No. 19
[30] = Strain 9: Helicobacter pylori No. 20
[31] = Strain 10: Helicobacter pylori No. 28

Compound | MIC [15] [µg/mL] | MIC against bacillus subcillus ATCC 6633 [4] [µg/mL] | MBC [16] [µg/mL] | MIC [16] [µg/mL] | MBC [17] [µg/mL] | MIC [17] [µg/mL] | MBC [18] [µg/mL] | MIC [6, 23] [µg/mL] | MIC [7, 24] [µg/mL] | MIC [8, 25] [µg/mL] | MIC [9, 26] [µg/mL] | MIC [12, 27] [µg/mL] | MIC [13, 28] [µg/mL] | MIC [1] [µg/mL] | MIC [2] [µg/mL] | MIC [3] [µg/mL] | MIC [4] [µg/mL] | MIC [5, 29] [µg/mL] | MIC [10, 30] [µg/mL] | MIC [11, 31] [µg/mL] | further results
CC1(C)S[C@@H]2[C@H](NC(=O)[C@H](N)c3ccc(O)cc3)C(=O)N2[C@H]1C(=O)O [Amoxicillin, amoxicillin, reference compound] |  |  |  |  |  |  |  |  |  |  |  |  |  |  |  |  |  |  |  |  | MIC ([1]; ATCC6538, read-out: MIC): 0.05 µg/mL (≈ 0.137 µM); MIC ([2]; read-out: MIC): 0.1 µg/mL (≈ 0.274 µM); MIC ([3]; read-out: MIC): 0.2 µg/mL (≈ 0.547 µM); MIC ([4]; ATCC6633, read-out: MIC): 0.05 µg/mL (≈ 0.137 µM); MIC ([5]; Strain 8: Helicobacter pylori No. 19, read-out: MIC): 0.025 µg/mL (≈ 0.0684 µM); MIC ([6]; Strain 7: Helicobacter pylori No. 4, read-out: MIC): 0.05 µg/mL (≈ 0.137 µM); MIC ([7]; Strain 4: Helicobacter pylori No. 1, read-out: MIC): 0.1 µg/mL (≈ 0.274 µM); MIC ([8]; Strain 5: Helicobacter pylori No. 2, read-out: MIC): 0.1 µg/mL (≈ 0.274 µM); MIC ([9]; Strain 6: Helicobacter pylori No. 3, read-out: MIC): 0.025 µg/mL (≈ 0.0684 µM); MIC ([10]; Strain 9: Helicobacter pylori No. 20, read-out: MIC): 0.025 µg/mL (≈ 0.0684 µM); MIC ([11]; Strain 10: Helicobacter pylori No. 28, read-out: MIC): 0.05 µg/mL (≈ 0.137 µM); MIC ([12]; ATCC43629, Objected Strain 2: Helicobacter pylori ATCC 43629, read-out: MIC): 0.025 µg/mL (≈ 0.0684 µM); MIC ([13]; ATCC43504, Objected Strain 1: Helicobacter pylori ATCC 43504, read-out: MIC): 0.05 µg/mL (≈ 0.137 µM)
Cl.NC(N)=NCC1CCC(C(=O)Oc2ccccc2C(=O)OCc2ccccc2)CC1 (stereo not shown) [benexart hydrochloride] |  |  |  |  |  |  |  |  |  |  |  |  |  |  |  |  |  |  |  |  | MIC [14]: > 100 µg/mL
Cl.N=C(N)NC[C@H]1CC[C@H](C(=O)Oc2ccc(-c3ccc(C(=O)OCc4ccc(Cl)cc4)cc3)cc2)CC1 [Example 15, trans4-guanidinomethyl cyclohexane carboxylic acid [4-[4-(4-chlorobenzyloxy carbonyl)phenyl]phenylester].hydrochloride] | >25 | > 25 | 0.39 | 0.39 | 1.56 | 0.39 | 0.78 | 0.20 | 0.10 | 0.39 | 0.10 | 0.39 | 0.78 |  |  |  |  |  |  |  | MIC [18]: 0.20 µg/mL; MBC [19]: 1.56 µg/mL; MIC [19]: 0.39 µg/mL; MBC [20]: 0.39 µg/mL; MIC [20]: 0.20 µg/mL; MBC [21]: 0.10 µg/mL; MIC [21]: 0.05 µg/mL
CC1COc2c(N3CCN(C)CC3)c(F)cc3c(=O)c(C(=O)O)cn1c23 (stereo not shown) [Ophroxacine, ophroxacine, reference compound] | 0.10 (≈ 0.277 µM) |  |  |  |  |  |  | 0.78 (≈ 2.16 µM) | 0.78 (≈ 2.16 µM) | 12.5 (≈ 34.6 µM) | 25.0 (≈ 69.2 µM) | 0.78 (≈ 2.16 µM) | 0.78 (≈ 2.16 µM) | 0.10 (≈ 0.277 µM) | 0.39 (≈ 1.08 µM) | 12.5 (≈ 34.6 µM) | 0.10 (≈ 0.277 µM) | 0.78 (≈ 2.16 µM) | 0.78 (≈ 2.16 µM) | 1.56 (≈ 4.32 µM) | 
Cl.N=C(N)NC[C@H]1CC[C@H](C(=O)Oc2ccc(-c3ccc(C(=O)OCc4ccc(F)cc4)cc3)cc2)CC1 [Example 16, trans-4-guanidinomethyl cyclohexane carboxylic acid [4-[4-(4-fluorobenzyloxycarbonyl)phenyl]phenylester].hydrochloride] | >25 | > 25 | 0.39 | 0.10 | 1.56 | 0.39 | 0.78 | 0.39 | 0.20 | 0.78 | 0.20 | 0.78 | 0.78 |  |  |  |  |  |  |  | MIC [18]: 0.20 µg/mL; MBC [19]: 3.13 µg/mL; MIC [19]: 0.78 µg/mL; MBC [20]: 0.39 µg/mL; MIC [20]: 0.20 µg/mL; MBC [21]: 0.10 µg/mL; MIC [21]: 0.05 µg/mL
Cc1ccc(COC(=O)c2ccc(-c3ccc(OC(=O)[C@H]4CC[C@H](CNC(=N)N)CC4)cc3)cc2)cc1.Cl [Example 14, trans-4-guanidinomethyl cyclohexane carboxylic acid [4-[4-(4-methylbenzyloxy carbonyl)phenyl]phenylester].hydrochloride] | >25 | > 25 | 0.39 | 0.39 | 1.56 | 0.39 | 0.20 | 0.20 | 0.10 | 0.39 | 0.10 | 0.39 | 0.39 | >25 | >25 | >25 | >25 | 0.20 | 0.39 | 0.39 | MIC [18]: 0.20 µg/mL; MBC [19]: 1.56 µg/mL; MIC [19]: 0.39 µg/mL; MBC [20]: 0.20 µg/mL; MIC [20]: 0.20 µg/mL; MBC [21]: 0.10 µg/mL; MIC [21]: 0.10 µg/mL
Cl.N=C(N)NC[C@H]1CC[C@H](C(=O)Oc2ccc(-c3ccc(C(=O)OCCc4ccc(Cl)cc4)cc3)cc2)CC1 [Example 45, trans-4-guanidinomethyl cyclohexane carboxylic acid[4-[4-[2-(4-chlorophenyl)ethyloxycarbonyl)phenyl]phenylester].hydrochloride] | >25 |  |  |  |  |  |  | 3.13 | 0.39 | 0.39 | 0.39 | 0.39 | 0.39 | >25 | >25 | >25 | >25 | 0.20 | 0.20 | 0.39 | 
Cl.N=C(N)NC[C@H]1CC[C@H](C(=O)Oc2ccc(-c3ccc(Cl)cc3)cc2)CC1 [Example 8, trans-4-guanidinomethyl cyclohexane carboxylic acid [4-(4-chlorophenyl)phenylester].hydrochloride] | >25 |  |  |  |  |  |  | 0.39 | 0.10 | 0.39 | 0.10 | 0.39 | 0.78 | 1.56 | 0.78 | 1.56 | 6.25 | 0.20 | 0.39 | 0.39 | 
N=C(N)NCC1CCC(C(=O)Oc2ccc(CCC(=O)NO)cc2)CC1 (stereo not shown) [Formula (XIV)] |  |  |  |  |  |  |  |  |  |  |  |  |  |  |  |  |  |  |  |  | ulceration restraining ratio [22]: 88.7%
